Data on 20 molecules can be found in paper PMC12516498, “Enzymatic, cell-based, and in silico evaluation of di-substituted aminomethyl-1,2,3-triazole–cinamamide hybrids as mushroom tyrosinase inhibitors” (RSC Advances, 2025).

A short description of data set [1]: DPPH free radical-scavenging assay. To be noted: 200 µM compound, DPPH 110 µM, 30 min. The method, then:
As described previously, radical-scavenging activity was assessed using the 2,2-diphenyl-1-picrylhydrazyl (DPPH) assay. Briefly, the mixture of different concentrations of the compounds and DPPH methanolic solution (110 µM) was shaken in the dark at room temperature for 30 min. The mixture absorbance was measured at 517 nm. Quercetin was used as the positive control.[25]

The next data set has as its target tyrosinase. To be noted: in Fig. 1; 13–15; read-out: IC50 against Tyrosinase; cited from earlier work.
For data set [2], the system named is B16F10 melanoma cells. Briefly: Melanin content assay. Conditions: α-MSH 100 nM, 70 µM compound, 48 h, untreated control 92 µg mL^−1. The format is cell-based, murine. The method, then:
The melanin content assay was performed according to previously reported protocols with minor modifications. Briefly, B16F10 cells were seeded in 12-well plates at a density of 50 000 cells per well. After 24 hours of incubation, 100 nM α-MSH was added to each well, followed by the addition of compound 9i five hours later. The plates were then incubated for an additional 48 hours. Subsequently, the cells were washed twice with PBS and harvested using […]. The cell pellets were dissolved in 200 µL of 1 N NaOH containing 10% DMSO and incubated at 80 °C for 2 hours to solubilize the melanin. The absorbance of the resulting supernatant was measured at […] using a microplate reader. The melanin content was quantified using a calibration curve constructed from synthetic melanin standards, measured at 405 nm. Kojic acid was used as a positive control for comparison.[29]

Data set [3] deals with B16F10 melanoma cells. The data set is described as follows: MTT assay for cell viability. The format is cell-based, murine. To be noted: concentrations ≤100 µM. The protocol: (§1) The cytotoxic activity of all derivatives was determined using the 3-(4,5-dimethylthiazol-2-yl)-2,5-diphenyltetrazolium bromide (MTT) assay. B16F10 were obtained from the Pasteur Institute of Iran (https://en.pasteur.ac.ir/). Cells (at a density of 25 000 cells per ml) were grown at 37 °C in the presence of CO2 5% in DMEM (Gibco BRL, Grand Island, NY, USA), 10% fetal bovine serum (FBS, Gibco BRL). Next, cells were seeded in a 96-well plate and incubated at 37 °C with the derivative at different concentrations for 72 h. Following treatment, cells were incubated with MTT (0.5 mg mL^−1) for 3 h. The MTT-containing medium was then removed, and 100 µL of DMSO was added to each well, mixed thoroughly with a 10-minute shake to dissolve the formazan crystals. The absorbance of each well was measured at 540 nm.[28]

Data set [4] in a line: MTT assay for cell viability. The format is cell-based, murine. To be noted: mouse, B16F10 melanoma cells, MTT, 72 h, read-out: % Viability ± SE. The protocol: as §1
The next data set has as its target mushroom tyrosinase (Agaricus bisporus, UniProt C7FF04). Briefly: Enzyme kinetic study / determination of the inhibition type (Lineweaver–Burk). To be noted: Lineweaver–Burk plot: Km increased, Vmax unchanged. The format is biochemical. The protocol: The substrate (L-DOPA) concentrations ranged from 0.5 to 2.8 mM according to the previously reported procedures.[24]

Molecules are shown by their SMILES.

Sequence of mushroom tyrosinase (C7FF04 2-392): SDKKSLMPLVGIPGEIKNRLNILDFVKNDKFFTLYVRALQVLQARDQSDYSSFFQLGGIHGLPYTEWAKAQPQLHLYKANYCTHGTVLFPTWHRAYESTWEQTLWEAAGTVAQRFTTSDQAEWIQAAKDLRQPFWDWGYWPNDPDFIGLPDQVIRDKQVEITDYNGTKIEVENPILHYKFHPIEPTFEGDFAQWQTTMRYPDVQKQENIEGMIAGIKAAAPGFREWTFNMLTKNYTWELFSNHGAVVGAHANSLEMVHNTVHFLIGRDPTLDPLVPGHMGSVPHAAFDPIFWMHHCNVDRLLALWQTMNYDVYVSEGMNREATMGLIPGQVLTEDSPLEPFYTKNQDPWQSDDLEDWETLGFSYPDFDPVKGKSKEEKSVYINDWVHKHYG

For `COc1ccc(C=CC(=O)NCc2cn(CC(=O)Nc3ccccc3)nn2)cc1` [Compound 9l, 3-(4-Methoxyphenyl)-N-((1-(2-oxo-2-(phenylamino)ethyl)-1H-1,2,3-triazol-4-yl)methyl)acrylamide], in data set [1], the “DPPH radical scavenging % Inhibition at 200 µM” value was 43.91 ± 4.50%.
As to `CCc1ccc(NC(=O)Cn2cc(CNC(=O)C=Cc3ccc(OC)cc3)nn2)cc1` [Compound 9p, N-((1-(2-((4-Ethylphenyl)amino)-2-oxoethyl)-1H-1,2,3-triazol-4-yl)methyl)-3-(4 methoxyphenyl)acrylamide], the “DPPH radical scavenging % Inhibition at 200 µM” value in data set [1] is recorded as 40.73 ± 5.91%.
Consider `O=c1cc(Cn2cc(Oc3ccc4ccccc4c3)nn2)occ1O` [F], for which, at tyrosinase, the IC50 was 0.3 µM.
As for `CCc1ccc(NC(=O)Cn2cc(CNC(=O)C=Cc3ccccc3)nn2)cc1` [Compound 9e, N-((1-(2-((4-Ethylphenyl)amino)-2-oxoethyl)-1H-1,2,3-triazol-4-yl)methyl)cinnamamide], the “DPPH radical scavenging % Inhibition at 200 µM” value in data set [1] amounted to 47.36 ± 1.93%.
The same measure, in the same setting: for `O=C(C=Cc1ccc(Cl)cc1)NCc1cn(CC(=O)Nc2ccc(Cl)cc2)nn1` [Compound 9h, 3-(4-Chlorophenyl)-N-((1-(2-((4-chlorophenyl)amino)-2-oxoethyl)-1H-1,2,3-triazol-4-yl)methyl)acrylamide] the value was 22.82 ± 0.90%; for `O=C(C=Cc1ccc(Cl)cc1)NCc1cn(CC(=O)Nc2ccccc2)nn1` [Compound 9f, 3-(4-Chlorophenyl)-N-((1-(2-oxo-2-(phenylamino)ethyl)-1H-1,2,3-triazol-4-yl)methyl)acrylamide], 46.18 ± 1.54%.
On to `O=C(C=Cc1ccccc1)NCc1cn(CC(=O)Nc2ccc(Br)cc2)nn1` [Compound 9d, N-((1-(2-((4-Bromophenyl)amino)-2-oxoethyl)-1H-1,2,3-triazol-4-yl)methyl)cinnamamide], for which, in data set [1], the “DPPH radical scavenging % Inhibition at 200 µM” value was 41.09 ± 4.11%.
Still for that read-out and setting: for `O=C(C=Cc1ccc(Cl)cc1)NCc1cn(CC(=O)Nc2ccc(F)cc2)nn1` [Compound 9g, 3-(4-Chlorophenyl)-N-((1-(2-((4-fluorophenyl)amino)-2-oxoethyl)-1H-1,2,3-triazol-4-yl)methyl)acrylamide] the value was 45.73 ± 3.47%.
In the case of `O=C(C=Cc1ccc(Cl)cc1)NCc1cn(CC(=O)Nc2ccc(Br)cc2)nn1` [Compound 9i, N-((1-(2-((4-Bromophenyl)amino)-2-oxoethyl)-1H-1,2,3-triazol-4-yl)methyl)-3-(4-chlorophenyl)acrylamide], in data set [1], the “DPPH radical scavenging % Inhibition at 200 µM” value is listed as 51.82 ± 2.31%. This molecule also returned an Intracellular melanin content in the data set on B16F10 melanoma cells [2] of 62 µg/mL. Besides, the “Cytotoxicity to B16F10 melanoma cells (in words)” value with B16F10 melanoma cells [3] is “low cytotoxicity”. Besides, the viability at 72 h, 100 µM in data set [4] (B16F10, 100 µM) is above 80%. Also, in data set [4] (B16F10, 150 µM), the viability at 72 h, 150 µM was found to be 58.2 ± 3.43%. In addition, the viability at 72 h, 200 µM in data set [4] (B16F10, 200 µM) was found to be 51.2 ± 4.34%. For the same molecule, the Inhibition type result at mushroom tyrosinase is listed as “competitive inhibition”.
Consider `O=C(C=Cc1ccccc1)NCc1cn(CC(=O)Nc2ccccc2)nn1` [Compound 9a, N-((1-(2-Oxo-2-(phenylamino)ethyl)-1H-1,2,3-triazol-4-yl)methyl)cinnamamide], for which the “DPPH radical scavenging % Inhibition at 200 µM” value in data set [1] is on record as 23.64 ± 4.63%.
Still for that read-out and setting: with `O=C(C=Cc1ccccc1)NCc1cn(CC(=O)Nc2ccc(Cl)cc2)nn1` [Compound 9c, N-((1-(2-((4-Chlorophenyl)amino)-2-oxoethyl)-1H-1,2,3-triazol-4-yl)methyl)cinnamamide] the figure was 36.91 ± 0.51%.
For the molecule `NC(=S)N/N=C/c1ccc(OCc2cn(Cc3ccc(F)cc3)nn2)cc1` [D], the half-inhibitory concentration (IC50) at tyrosinase is 0.22 µM.
With `COc1ccc(C=CC(=O)NCc2cn(CC(=O)Nc3ccc(OC)cc3)nn2)cc1` [Compound 9q, 3-(4-Methoxyphenyl)-N-((1-(2-((4-methoxyphenyl)amino)-2-oxoethyl)-1H-1,2,3-triazol-4-yl)methyl)acrylamide], in data set [1], the “DPPH radical scavenging % Inhibition at 200 µM” value came out at 61.51 ± 3.74%.
Turning to `O=C(C=Cc1ccccc1)NCc1cn(CC(=O)Nc2ccc(F)cc2)nn1` [Compound 9b, N-((1-(2-((4-Fluorophenyl)amino)-2-oxoethyl)-1H-1,2,3-triazol-4-yl)methyl)cinnamamide], in data set [1], the “DPPH radical scavenging % Inhibition at 200 µM” value is on record as 64.18 ± 2.31%.
Still for that read-out and setting: with `CCc1ccc(NC(=O)Cn2cc(CNC(=O)C=Cc3ccc(Cl)cc3)nn2)cc1` [Compound 9j, 3-(4-Chlorophenyl)-N-((1-(2-((4-ethylphenyl)amino)-2-oxoethyl)-1H-1,2,3-triazol-4-yl)methyl)acrylamide] the figure was 82.36 ± 5.91%; with `COc1ccc(C=CC(=O)NCc2cn(CC(=O)Nc3ccc(Br)cc3)nn2)cc1` [Compound 9o, N-((1-(2-((4-Bromophenyl)amino)-2-oxoethyl)-1H-1,2,3-triazol-4-yl)methyl)-3-(4-methoxyphenyl)acrylamide], 57.09 ± 6.17%.
On the same count and under the same terms, with `COc1ccc(C=CC(=O)NCc2cn(CC(=O)Nc3ccc(Cl)cc3)nn2)cc1` [Compound 9n, N-((1-(2-((4-Chlorophenyl)amino)-2-oxoethyl)-1H-1,2,3-triazol-4-yl)methyl)-3-(4-methoxyphenyl)acrylamide] the figure was 68.64 ± 7.33%.
On the same count and under the same terms, with `COc1ccc(NC(=O)Cn2cc(CNC(=O)C=Cc3ccc(Cl)cc3)nn2)cc1` [Compound 9k, 3-(4-Chlorophenyl)-N-((1-(2-((4-methoxyphenyl)amino)-2-oxoethyl)-1H-1,2,3-triazol-4-yl)methyl)acrylamide] the figure was 55.28 ± 0.16%.
Turning to `COc1ccc(C=CC(=O)NCc2cn(CC(=O)Nc3ccc(F)cc3)nn2)cc1` [Compound 9m, N-((1-(2-((4-Fluorophenyl)amino)-2-oxoethyl)-1H-1,2,3-triazol-4-yl)methyl)-3-(4-methoxyphenyl)acrylamide], in data set [1], the “DPPH radical scavenging % Inhibition at 200 µM” value is given as 60.18 ± 6.94%.
For `Clc1ccc(Cn2cc(COc3ccc(-c4nc5ccccc5[nH]4)cc3)nn2)cc1Cl` [E], the IC50 on tyrosinase is 9.42 µM.
